What was measured:
[1] = system: pp59Lyn and Gce1 / caveolin-1 in hcDIGs of rat adipocytes; test: Dissociation of pp59Lyn and Gce1 from caveolin-1; format: cell-based; conditions: Adipocyte, FIG. 6 Panel B, read-out: IC50 for abrogation of losses from caveolin-1 immunoprecipitates
Experimental: Solubilized DIGs (see above, 5-20 μg protein) were precleared by incubation with protein A/G-Sepharose and subsequent centrifugation (10,000×g, 5 min). The supernatant was incubated with anti-caveolin-1 antibodies (1:1000) preadsorbed on protein A/G-Sepharose in 1 ml of 10 mM Tris/HCl (pH 7.4), 150 mM NaCl, 1% TX-100 for 1 h at 4° C. The immune complexes were washed twice with the same buffer and then twice with buffer lacking TX-100 and finally subjected to SDS-PAGE performed in the absence of β-mercaptoethanol. The recovery of immunoprecipitated caveolin was normalized by homologous immunoblotting with anti-caveolin antibodies of the same blot following stripping of the membrane.
Next we investigated the putative causal relationship between dissociation from caveolin/activation and stimulus-dependent lipolytic cleavage of GPI-proteins in rat adipocytes by inhibiting GPI-PLC and subsequent analysis of the interaction with caveolin-1 of Gce1 and pp59^Lyn as well as kinase activity of the latter (FIG. 6). […] This potency is similar to GPI-PLC inhibition by GPI-2350 in intact adipocytes (FIG. 3). […]

[2] = system: GPI-PLC, intact rat adipocytes; test: GPI-PLC activity in intact rat adipocytes (amphiphilic-to-hydrophilic conversion of endogenous 5'-Nuc, Gce1, aP); format: cell-based
Experimental: Adipocytes isolated by digestion from epididymal fat pads of male rats (120-140 g, fed ad libitum, see Ref. 53 [Muller et al.; Mol. Cell. Biol. 21:[…] (2001)]) were washed twice in KRH (20 mM Hepes/KOH, pH 7.4, 1.2 mM KH2PO4, 140 mM NaCl, 4.7 mM KCl, 2.5 mM CaCl2, 1.2 mM MgSO4) containing 1% (w/v) BSA and then incubated in the same medium supplemented with 100 μg/ml gentamycin, 100 nM 1-methyl-2-phenylethyladenosine, 0.5 U/ml adenosine deaminase, 1 mM sodium pyruvate and 5 mM D-glucose in the absence or presence of GPI-2350 (prepared as 10 mM stock solution in DMSO, the final DMSO concentration in the in vitro and adipocyte incubations was kept constant at 0.5% at any inhibitor concentration), insulin or glimepiride (prepared as described in “Müller et al. (1994) J. Cell. Biol. 126:1267-1276”) at 37° C. in a shaking water bath at constant bubbling with 5% CO2/95% O2 at a final titer of 100 μl of packed cell volume per ml incubation volume (determined by aspiration of small aliquots into capillary hematocrit tubes and centrifugation for 60 s [seconds] in a microhematocrit centrifuge in order to determine the fractional occupation of the suspension by the adipocytes; 10% cytocrit corresponds to about 1.5×10^6 cells/ml) for the periods indicated. […]

CCCCCCCCCCCCP1(=O)O[C@@H]2[C@H](O)[C@@H](O)[C@H](O)[C@@H](O)[C@@H]2O1 (stereo partly drawn) [GPI-2350, myo-inositol-1,2-cyclo-dodecylphosphonic acid]
IC50 [1]: 5 to 10 µM
IC50 ([2]; FIG. 8, read-out: concentration of half-maximal inhibition of the GPI-PLC): 5 µM
reduction of basal and glimepiride-/insulin-stimulated GPI-PLC activity ([2]; intact adipocytes, concentration-dependent): to lower than basal and similar levels
